Results: patent US9695155B2, “Herbicidal substituted pyrimidinyloxy benzene compounds” (E. I. DU PONT DE NEMOURS AND COMPANY, priority 2013, dated 2017)

Legend:
[1] = tested on: pigweed; assay: Test D preemergence; type: in vivo, Amaranthus retroflexus
Excerpt: (§1) Seeds of plant species selected from bluegrass (annual bluegrass, Poa annua), blackgrass (Alopecurus myosuroides), canarygrass (littleseed canarygrass, Phalaris minor), chickweed (common chickweed, Stellaria media), galium (catchweed bedstraw, Galium aparine), bromegrass, downy (downy bromegrass, Bromus tectorum), field poppy (Papaver rhoeas), field violet (Viola arvensis), green foxtail (Setaria viridis), deadnettle (henbit deadnettle, Lamium amplexicaule), Italian ryegrass (Lolium multiflorum), kochia (Kochia scoparia), lambsquarters (Chenopodium album), oilseed rape (Brassica napus), pigweed (Amaranthus retroflexus), chamomile (scentless chamomile, Matricaria inodora), Russian thistle (Salsola kali), speedwell (bird's-eye speedwell, Veronica persica), spring barley (Hordeum vulgare), spring wheat (Triticum aestivum), wild buckwheat (Polygonum convolvulus), wild mustard (Sinapis arvensis), wild oat (Avena fatua), wild radish (Raphanus raphanistrum), windgrass (Apera spica-venti), winter barley (Hordeum vulgare), and winter wheat (Triticum aestivum) were planted into a silt loam soil and treated preemergence with test chemicals formulated in a non-phytotoxic solvent mixture which included a surfactant.
(§2) At the same time, these species were planted in pots containing Redi-Earth® planting medium (Scotts Company, 14111 Scottslawn Road, Marysville, Ohio 43041) comprising spaghnum peat moss, vermiculite, wetting agent and starter nutrients and treated with postemergence applications of the test chemicals formulated in the same manner. Plants ranged in height from 2 to 18 cm (1- to 4-leaf stage). Treated plants and controls were maintained in a controlled growth environment for 7 to 21 days after which time all species were compared to controls and visually evaluated. Plant response ratings, summarized in Table D, are based on a scale of 0 to 100 where 0 is no effect and 100 is complete control. A dash (-) response means no test result.

[2] = tested on: windgrass; assay: Test D postemergence; type: in vivo, Apera spica-venti
Outline: (§3)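 In a controlled growth environment, treated and control plants were held 7 to 21 days, then compared visually. Damage was scored 0–100, where 100 means complete control. Sprays contained surfactant in a non-phytotoxic solvent; post-applied plants were at the 1- to 4-leaf stage.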

[3] = tested on: pigweed; assay: Test D postemergence; type: in vivo, Amaranthus retroflexus
Excerpt: as §1, §2

[4] = tested on: spring barley; assay: Test D postemergence; type: in vivo, Hordeum vulgare
Excerpt: as §1, §2

[5] = tested on: winter barley; assay: Test D postemergence; type: in vivo, Hordeum vulgare
Excerpt: as §1, §2

[6] = tested on: galium; assay: Test D preemergence; type: in vivo, Galium aparine
Outline: as §3

[7] = tested on: kochia; assay: Test D postemergence; type: in vivo, Kochia scoparia
Excerpt: as §1, §2

[8] = tested on: spring wheat; assay: Test D postemergence; type: in vivo, Triticum aestivum
Excerpt: as §1, §2

[9] = tested on: winter wheat; assay: Test D postemergence; type: in vivo, Triticum aestivum
Excerpt: as §1, §2

[10] = tested on: canarygrass; assay: Test D postemergence; type: in vivo, Phalaris minor
Excerpt: as §1, §2

[11] = 16 g ai/ha, scale 0 (no effect) to 100 (complete control)
[12] = 31 g ai/ha, scale 0 to 100 (0 no effect, 100 complete control)
[13] = 62 g ai/ha, scale 0 to 100 (0 no effect, 100 complete control)
[14] = 125 g ai/ha, scale 0 to 100 (0 no effect, 100 complete control)
[15] = Postemergence, 62 g ai/ha, scale 0 to 100 (0 no effect, 100 complete control)
[16] = Postemergence, 31 g ai/ha, scale 0 to 100 (0 no effect, 100 complete control)
[17] = Postemergence, 125 g ai/ha, scale 0 to 100 (0 no effect, 100 complete control)
[18] = postemergence, 16 g ai/ha, scale 0 to 100, 0 no effect, 100 complete control

FCc1cccc(Oc2ncc(Cl)cn2)c1-n1cc(I)cn1 [Compound 245]
Plant response rating, Pigweed [1, 11]: 98 | Plant response rating, Pigweed ([1]; 31 g ai/ha, scale 0 (no effect) to 100 (complete control)): 100 | Plant response rating, Pigweed ([1]; 125 g ai/ha, scale 0-100): 100 | Plant response rating, Windgrass ([2]; 16 g ai/ha, scale 0-100): 10 | Plant response rating, Windgrass [2, 12]: 15 | Plant response rating, Windgrass [2, 13]: 15 | Plant response rating, Windgrass [2, 14]: 25 | Plant response rating, Pigweed ([3]; 16 g ai/ha, scale 0-100): 95 | Plant response rating, Pigweed [3, 12]: 95 | Plant response rating, Pigweed [3, 13]: 100 | Plant response rating, Pigweed [3, 14]: 100 | Plant response rating, Barley, Spring [4, 15]: 20 | Plant response rating, Barley, Spring [4, 16]: 20 | Plant response rating, Barley, Spring [4, 17]: 30 | Plant response rating, Barley, Spring [4, 18]: 10 | Plant response rating, Barley, Winter [5, 15]: 20 | Plant response rating, Barley, Winter [5, 16]: 15 | Plant response rating, Barley, Winter [5, 17]: 20 | Plant response rating, Barley, Winter [5, 18]: 25 | Plant response rating, Galium [6, 11]: 0 | Plant response rating, Galium ([6]; 31 g ai/ha, scale 0-100): 0 | Plant response rating, Galium ([6]; 62 g ai/ha, scale 0-100): 5 | Plant response rating, Galium ([6]; 125 g ai/ha, scale 0-100): 85 | Plant response rating, Kochia ([7]; 16 g ai/ha, scale 0-100): 25 | Plant response rating, Kochia [7, 12]: 70 | Plant response rating, Kochia [7, 13]: 90 | Plant response rating, Kochia [7, 14]: 90 | Plant response rating, Wheat, Spring ([8]; 16 g ai/ha, scale 0-100): 10 | Plant response rating, Wheat, Spring [8, 12]: 10 | Plant response rating, Wheat, Spring [8, 13]: 10 | Plant response rating, Wheat, Spring [8, 14]: 20 | Plant response rating, Wheat, Winter ([9]; 16 g ai/ha, scale 0-100): 5 | Plant response rating, Wheat, Winter [9, 12]: 10 | Plant response rating, Wheat, Winter [9, 13]: 10 | Plant response rating, Wheat, Winter [9, 14]: 10 | Plant response rating, Canarygrass ([10]; 16 g ai/ha, scale 0-100): 0 | Plant response rating, Canarygrass [10, 12]: 20 | Plant response rating, Canarygrass [10, 13]: 25 | Plant response rating, Canarygrass [10, 14]: 35
